# According to US7727736B2, “Soluble phospholipids for use in clotting factor assays” (The University of North Carolina at Chapel Hill, priority 2003, dated 2010):
# Assays:
# [1] = CMC of C6PS using ANS as fluorescent probe in the presence of factor IXa; format: physicochemical; settings: 200 nM factor IXa, 5 mM calcium
# [2] = target: T1, factor Va (Bos taurus, UniProt Q28107); experiment: Factor Va inactivation by APC; format: biochemical, bovine; parameters: APC cuts three bonds in the heavy chain of factor Va; bovine factor Va (100 nM)
# T1 sequence (Q28107 29-741 limits assumed): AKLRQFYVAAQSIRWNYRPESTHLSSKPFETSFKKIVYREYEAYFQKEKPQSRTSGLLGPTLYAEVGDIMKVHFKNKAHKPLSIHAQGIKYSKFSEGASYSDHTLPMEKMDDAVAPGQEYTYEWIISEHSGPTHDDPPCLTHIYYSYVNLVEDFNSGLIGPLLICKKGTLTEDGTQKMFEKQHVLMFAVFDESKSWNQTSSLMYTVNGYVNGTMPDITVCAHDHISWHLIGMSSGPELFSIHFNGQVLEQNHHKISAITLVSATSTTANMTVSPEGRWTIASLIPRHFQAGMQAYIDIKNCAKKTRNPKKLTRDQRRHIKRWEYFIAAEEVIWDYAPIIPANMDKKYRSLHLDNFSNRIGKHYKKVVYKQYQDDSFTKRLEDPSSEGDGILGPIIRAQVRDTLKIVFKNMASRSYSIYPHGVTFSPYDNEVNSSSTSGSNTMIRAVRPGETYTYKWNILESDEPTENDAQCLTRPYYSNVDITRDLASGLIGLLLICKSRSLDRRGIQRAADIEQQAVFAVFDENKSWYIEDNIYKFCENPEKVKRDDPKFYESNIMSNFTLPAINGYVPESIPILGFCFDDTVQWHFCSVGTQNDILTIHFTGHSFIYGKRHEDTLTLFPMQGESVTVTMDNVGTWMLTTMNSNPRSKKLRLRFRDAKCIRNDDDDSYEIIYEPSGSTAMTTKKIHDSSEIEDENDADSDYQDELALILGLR
# T1 sequence (Q28107 1565-2211 limits assumed): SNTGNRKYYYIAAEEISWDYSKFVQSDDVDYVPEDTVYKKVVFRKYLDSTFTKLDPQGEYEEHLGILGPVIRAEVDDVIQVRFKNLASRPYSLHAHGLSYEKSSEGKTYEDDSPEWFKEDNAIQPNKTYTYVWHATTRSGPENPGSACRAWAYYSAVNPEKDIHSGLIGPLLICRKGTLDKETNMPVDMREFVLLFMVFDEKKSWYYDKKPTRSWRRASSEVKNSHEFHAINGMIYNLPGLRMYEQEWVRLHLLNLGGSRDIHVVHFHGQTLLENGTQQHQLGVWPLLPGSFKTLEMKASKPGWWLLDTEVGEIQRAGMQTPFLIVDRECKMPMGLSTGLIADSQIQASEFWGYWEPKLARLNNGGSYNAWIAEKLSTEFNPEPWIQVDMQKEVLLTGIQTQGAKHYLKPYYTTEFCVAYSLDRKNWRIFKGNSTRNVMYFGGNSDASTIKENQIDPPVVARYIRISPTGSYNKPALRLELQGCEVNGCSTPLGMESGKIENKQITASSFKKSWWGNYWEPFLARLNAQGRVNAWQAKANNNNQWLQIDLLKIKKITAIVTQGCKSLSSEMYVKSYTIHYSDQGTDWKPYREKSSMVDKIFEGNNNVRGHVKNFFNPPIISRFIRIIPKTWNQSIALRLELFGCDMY
# Procedure: Aliquots of this mixture (10 μL) were added at selected time intervals to a cuvette containing prothrombin (1.4 μM), DAPA (5 μM), PCPS vesicle (50 μM), and factor Xa (10 nM) in a total assay volume of 1 mL. The fluorescence intensity of the thrombin-DAPA was monitored with time. Under these conditions, the rate of thrombin formation is proportional to the rate of DAPA fluorescence increase and is linearly related to the amount of active factor Va. The two isoforms of factor Va, Va1 (Frame A) and Va2 (Frame B) were inactivated at different rates and to different extents by APC depending on the availability of C6PS.
# (§1) Proteolysis at Arg^506 leads to partial inactivation, but proteolysis at Arg^306 is necessary for full inactivation (Kalafatis & Mann (1993) J. Biol. Chemistry 268 27246; Nicolaes et al., (1995) J. Biol. Chemistry (1995) 270 21158). […] The rate of proteolysis of the bond at Arg^306 increased from undetectable to a value of kcat/KM=3-3.5×10^6 M^−1sec^−1, identical to the rate reported with PS-containing membranes.
# [3] = target: APC (Homo sapiens, UniProt P04070); experiment: SPS binding to APC; settings: other experiments
# Chain of APC (P04070 43-197 limits assumed): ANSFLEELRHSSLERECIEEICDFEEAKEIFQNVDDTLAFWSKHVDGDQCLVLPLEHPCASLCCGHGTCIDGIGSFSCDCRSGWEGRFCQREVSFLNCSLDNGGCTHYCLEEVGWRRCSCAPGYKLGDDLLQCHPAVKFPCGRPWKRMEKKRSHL
# Chain of APC (P04070 212-461 limits assumed): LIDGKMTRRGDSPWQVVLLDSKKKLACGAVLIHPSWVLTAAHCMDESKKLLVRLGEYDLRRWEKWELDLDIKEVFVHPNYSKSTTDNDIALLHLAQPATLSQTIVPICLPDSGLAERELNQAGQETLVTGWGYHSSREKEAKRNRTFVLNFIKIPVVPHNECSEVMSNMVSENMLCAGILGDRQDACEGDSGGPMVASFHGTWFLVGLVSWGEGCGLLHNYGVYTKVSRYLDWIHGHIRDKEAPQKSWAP
# Text: as §1
smiles,measurement,setting,value
"CCCCCC(=O)OC[C@H](COP(=O)(O)OC[C@H](N)C(=O)O)OC(=O)CCCCC [C6PS, 1,2-dicaproyl-sn-glycero-3-phospho-L-serine]",CMC of C6PS,[1],950 µM
same,effect on extent of factor Va inactivation by APC,[2]; 4 μM C6PS,only a small effect
same,effect on rate of factor Va inactivation by APC,[2]; 4 μM C6PS,no effect
same,factor Va inactivation by APC,[2]; 200 μM C6PS,complete inactivation
same,Kd,[3],~1 µM
